The record followed here is ChEMBL document CHEMBL1201862, “PubChem BioAssay data set” (2004).

Structures can show the parent of a compound that is named as a salt.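 Briefly, cells in 96-well plates were exposed to five compound concentrations for 48 h, and endpoints were estimated by linear interpolation. The concentration for 50% growth inhibition is given as GI50.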 Activity calls are given as the source filed them. No stated cut-off is given here; in the data, active = GI50 up to about 1.1 µM and inactive = higher.

Some test systems named below: A549; ACHN; HCC 2998; HCT-15; IGROV-1; MDA-MB-435; NCI-H522; OVCAR-3; OVCAR-5; OVCAR-8; RPMI-8226; SF-268; SK-MEL-28; SK-MEL-5; SW-620; U-251; UO-31; EKVX; MCF7; RXF 393.
Test in all cases: DTP human tumour cell line panel, 48 h

Regarding `Cc1cccc(/N=N/C(=O)NNc2cccc(C)c2C)c1C`, the GI50 in the test with A549 is 31.2 µM (inactive); with ACHN it was 41.7 µM (inactive); with HCC 2998 it was 15 µM (inactive); in the test with HCT-15, 38.5 µM; with IGROV-1, 23.9 µM (inactive); in the test with MDA-MB-435 it was 26.1 µM (inactive). For the same compound, the GI50 in the test on NCI-H522 is 24.7 µM (inactive); in the test with OVCAR-3, 45.4 µM (inactive); in the test on OVCAR-5, 37 µM (inactive); with OVCAR-8, 33.3 µM (inactive); in the test on RPMI-8226, 29.4 µM (inactive); in the test on SF-268, 34 µM (inactive). In addition, the GI50 in the test on SK-MEL-28 is 43.6 µM (inactive); with SK-MEL-5 it was 28.6 µM (inactive); in the test on SW-620, 34 µM (inactive); in the test with U-251, 35.8 µM (inactive); with UO-31 it was 30.8 µM (inactive).

Consider `O=C(O)C1(C(=O)O)CC1(C(=O)O)C(=O)O`, for which the GI50 in the test with A549 was > 100 µM (inactive); in the test on ACHN it was > 100 µM (inactive); in the test with EKVX, > 100 µM (inactive); in the test on HCC 2998, > 100 µM (inactive); with HCT-15 it was above 100 µM; in the test on IGROV-1 it was > 100 µM (inactive). Also, the GI50 in the test on MCF7 was > 100 µM (inactive); in the test on NCI-H522, > 100 µM (inactive); in the test with OVCAR-5, > 100 µM (inactive); with OVCAR-8, > 100 µM (inactive); with RXF 393, 32.6 µM (inactive); in the test with SF-268, > 100 µM (inactive). Also, the GI50 in the test with SK-MEL-28, with SK-MEL-5, with SW-620, in the test with U-251 and with UO-31 was > 100 µM (inactive) throughout.

For the compound `CN(C(=S)Cc1ccc(Cl)c(Cl)c1)C1CCCC[C@@H]1N1CCCC1` (stereo not given in full), the GI50 was 63.4 µM (inactive) with A549; 62.1 µM (inactive) with ACHN; > 100 µM (inactive) in the test on EKVX; 58.1 µM in the test with HCT-15; < 0.01 µM (active) with IGROV-1; 26.6 µM (inactive) in the test with MDA-MB-435. Further, the GI50 was 26.1 µM (inactive) in the test with OVCAR-3; 59.8 µM (inactive) in the test with OVCAR-5; 31.8 µM (inactive) in the test on RPMI-8226; 16.7 µM (inactive) with SK-MEL-28; 18.5 µM (inactive) in the test on SK-MEL-5; 20.1 µM (inactive) in the test on SW-620. Further, the GI50 with U-251 was 29.9 µM (inactive); with UO-31 it was 19.6 µM (inactive).

With `Nc1nc2c(c(=O)[nH]1)C(c1ccccc1)CC(=O)N2` (stereo not given), the GI50 in the test with A549 was > 100 µM (inactive); in the test with ACHN, > 100 µM (inactive); with EKVX, > 100 µM (inactive); in the test with HCC 2998, > 100 µM (inactive); with HCT-15 it was above 100 µM; in the test on IGROV-1, > 100 µM (inactive). Also, the GI50 in the test on MCF7, in the test on MDA-MB-435, in the test with OVCAR-3, in the test on OVCAR-5, in the test on OVCAR-8 and in the test on RPMI-8226 was > 100 µM (inactive) in each case. Moreover, the GI50 in the test on SF-268, with SK-MEL-28, in the test on SK-MEL-5, in the test with SW-620, with U-251 and with UO-31 was > 100 µM (inactive) in each case.

With `Cc1ccc(/N=c2/oc3c(ccc4ccccc43)nc2Nc2ccc(C)cc2)cc1`, the GI50 in the test with A549 is > 100 µM (inactive); in the test with ACHN, 80.4 µM (inactive); with EKVX, > 100 µM (inactive); in the test with HCC 2998, > 100 µM (inactive); in the test with HCT-15, above 100 µM; in the test on IGROV-1, > 100 µM (inactive). For the same compound, the GI50 in the test with MDA-MB-435, in the test on NCI-H522, with OVCAR-5, with OVCAR-8, with RPMI-8226 and with RXF 393 was > 100 µM (inactive) in each case. The GI50 with SF-268, in the test on SK-MEL-28, with SK-MEL-5, in the test with SW-620, in the test on U-251 and in the test on UO-31 was > 100 µM (inactive) throughout.

Consider `Cc1c(NC(=O)CCCl)c(=O)oc2c(C)c3occc(=O)c3cc12`, for which the GI50 in the test with A549 was > 100 µM (inactive); with ACHN, 45.5 µM (inactive); in the test with EKVX, > 100 µM (inactive); with HCC 2998, > 100 µM (inactive); with HCT-15 it was 62.4 µM; in the test on IGROV-1, 97.5 µM (inactive). Besides, the GI50 with MCF7 was 67.5 µM (inactive); in the test with OVCAR-5, > 100 µM (inactive); with OVCAR-8, > 100 µM (inactive); with RPMI-8226 it was 81.7 µM (inactive); with RXF 393, 33.5 µM (inactive); with SF-268 it was > 100 µM (inactive). Moreover, the GI50 in the test on SK-MEL-28 is 53 µM (inactive); with SK-MEL-5, 36.8 µM (inactive); with SW-620, 87.7 µM (inactive); in the test on U-251, 67.6 µM (inactive); in the test on UO-31, 36.1 µM (inactive).

Turning to `CCOP(=O)(OCC)/C(=C/c1cccs1)CC(C)=O`, the GI50 is > 100 µM (inactive) with A549; > 100 µM (inactive) in the test on ACHN; > 100 µM (inactive) in the test with EKVX; > 100 µM (inactive) in the test with HCC 2998; above 100 µM in the test on HCT-15; > 100 µM (inactive) in the test with IGROV-1. Further, the GI50 in the test with MCF7, in the test with MDA-MB-435, in the test on OVCAR-3, in the test on OVCAR-5, with OVCAR-8 and in the test with RXF 393 was > 100 µM (inactive) each time. The GI50 in the test on SF-268, with SK-MEL-28, in the test on SK-MEL-5, in the test on SW-620, in the test with U-251 and with UO-31 was > 100 µM (inactive) throughout.

For the compound `COc1ccc2c(c1)O[C@@H]1[C@@H](OC3OC(CO)C(O)C(O)C3O)Oc3cc(OC)c(OC)cc3[C@]1(O)C2=O` (stereo not given in full), the GI50 was > 100 µM (inactive) in the test on A549; > 100 µM (inactive) with ACHN; > 100 µM (inactive) in the test with EKVX; > 100 µM (inactive) in the test on HCC 2998; above 100 µM with HCT-15; > 100 µM (inactive) in the test on IGROV-1. Besides, the GI50 in the test on MDA-MB-435, in the test on NCI-H522, in the test with OVCAR-3, in the test with OVCAR-5, in the test on OVCAR-8 and with RPMI-8226 was > 100 µM (inactive) each time. In addition, the GI50 in the test with RXF 393 was > 100 µM (inactive); in the test on SF-268, > 100 µM (inactive); in the test with SK-MEL-28, 25.8 µM (inactive); with SK-MEL-5, > 100 µM (inactive); with SW-620 it was 17.5 µM (inactive); in the test with U-251, > 100 µM (inactive). The GI50 in the test on UO-31 is > 100 µM (inactive).

Take `O=c1c(C(c2ccc(-c3ccccc3)cc2)c2c(O)oc3ccccc3c2=O)c(O)oc2ccccc12`: the GI50 with ACHN was 26.7 µM (inactive); in the test on EKVX, 46.6 µM (inactive); with HCC 2998 it was 15.6 µM (inactive); in the test on HCT-15, 19.1 µM; with IGROV-1, 34.8 µM (inactive); in the test with MDA-MB-435, 22.8 µM (inactive). Moreover, the GI50 in the test on NCI-H522 is 24 µM (inactive); with OVCAR-3, 24.3 µM (inactive); in the test with OVCAR-8, 17.2 µM (inactive); in the test on RPMI-8226 it was 25.9 µM (inactive); in the test with SF-268 it was 21.8 µM (inactive); in the test with SK-MEL-28 it was 16.3 µM (inactive). For the same compound, the GI50 is 28.7 µM (inactive) in the test with SK-MEL-5, 16.4 µM (inactive) in the test on SW-620, 44.8 µM (inactive) in the test with U-251 and 17.7 µM (inactive) in the test with UO-31.

Regarding `CO[C@@H]1C=C[C@@]23c4cc5c(cc4CN(C[C@@H]2O)[C@H]3C1)OCO5` [(+)-HAEMANTHAMINE], the GI50 in the test with A549 was 24 µM (inactive); in the test on ACHN, 5.13 µM (inactive); with EKVX it was 38 µM (inactive); in the test on HCC 2998 it was 15.6 µM (inactive); in the test on HCT-15, 17.4 µM; in the test on IGROV-1, 23.1 µM (inactive). Also, the GI50 is 12.1 µM (inactive) with NCI-H522; 46.6 µM (inactive) with OVCAR-3; 41.9 µM (inactive) in the test with OVCAR-5; 27.9 µM (inactive) in the test on OVCAR-8; 29.6 µM (inactive) with RPMI-8226; 18.7 µM (inactive) in the test on RXF 393. Also, the GI50 in the test on SF-268 was 29.7 µM (inactive); in the test on SK-MEL-28, 18.9 µM (inactive); in the test with SK-MEL-5, > 10 µM (inactive); in the test with SW-620, 15.5 µM (inactive); in the test on U-251 it was 15 µM (inactive); in the test on UO-31 it was 16.5 µM (inactive).

For the compound `CNC(C)Cc1ccccc1OC` (stereo not given) [METHOXYPHENAMINE HYDROCHLORIDE], the GI50 is > 100 µM (inactive) in the test on A549; > 100 µM (inactive) in the test on ACHN; > 100 µM (inactive) in the test with EKVX; > 100 µM (inactive) in the test with HCC 2998; above 100 µM in the test with HCT-15; > 100 µM (inactive) in the test on IGROV-1. Further, the GI50 in the test with NCI-H522, in the test with OVCAR-3, in the test with OVCAR-5, with OVCAR-8, with RPMI-8226 and in the test with RXF 393 was > 100 µM (inactive) in each case. For the same compound, the GI50 in the test on SF-268, with SK-MEL-28, in the test with SK-MEL-5, with SW-620, with U-251 and in the test on UO-31 was > 100 µM (inactive) throughout.

In general, GI50 refers to the concentration giving 50% growth inhibition.
